Experimental data reported in patent publication US9133180B2, “Aurora and FLT3 kinases modulators” (SAREUM LIMITED, priority 2012, dated 2015).

Assays:
HCT-116 = assay: Anti-proliferative activity, Alamar Blue assay; type: cell-based; conditions: Homo sapiens, 96 h exposure, read-out: HCT116 96 Hrs IC50
Method: The anti-proliferative activities of compounds of the invention are determined by measuring the ability of the compounds to inhibit the growth of the colorectal cancer derived cell-line HCT-116. Inhibition of cell growth is measured using the Alamar Blue assay (Nociari et al., Journal of Immunological Methods (1998) 213, 157-167). The method is based on the ability of viable cells to reduce resazurin to its fluorescent product resorufin. For each proliferation assay cells are plated onto 96 well plates and allowed to recover for 16 hours prior to the addition of inhibitor compounds for a further 96 hours. At the end of the incubation period 10% (v/v) Alamar Blue is added and incubated for a further 6 hours prior to determination of fluorescent product at Excitation 535 nm and Emission 590 nm. All cell lines are obtained from ECACC (European Collection of cell Cultures).
The activities of the compounds of the invention against the human colorectal cancer cell line HCT-116 are shown the in the table below. The column headed HCT-116 96 Hrs refers to the concentration of compound required to reduce the proliferation of HCT-116 cells by 50% following a 96 h period of exposure. The column headed [Polyploidy] refers to the lowest concentration of compound required to produce a distinct polyploid phenotype, believed to be due to Aurora B inhibition.

MV4-11 xenograft tumors = assay: MV4-11 xenograft study in nude mice; type: in vivo, Balb/c nude mouse; conditions: 4 cycles; for tumour inhibitory rate (IR): 5 days on, 2 day off, tumour weight at end point
Description: The in vivo antitumour activity of compounds of the invention was investigated by examining the effect of the compounds of Examples 2 and 7 on tumour growth in a nude mouse xenograft model of the MV4-11 cancer cell line.
MV4-11 cell line (ATCC, USA); RPMI 1640 medium (Invitrogen, USA); FBS (Invitrogen, Australia); Balb/c nude mouse (Slac Laboratory Animal Co., Ltd., Shanghai, China): female, 18-22 g; HP-6-CD (Sigma, USA).
A total of 52 female nude mice were used. The mice were allowed 3 days of acclimatization period before starting the experiment. Mice were implanted subcutaneously (s.c.) with 200 μl of 1×10^7MV4-11 tumour cells in 50% Matrigel in the right flank at the beginning of the study. When tumours reached an average volume of 100-150 mm^3, 32 mice out of the 52 were selected based on tumour volume, and randomly assigned to 4 groups prior to dosing. Each treatment group consisted of 8 tumour-bearing animals (n=8/group).
A comparison group of mice were treated with cytarabine once daily for 5 days on, 2 days off, for 4 cycles.
Mice were weighed at each dosing and the tumour sizes recorded twice each week. Mice were observed closely for any overt signs of adverse, treatment-related side effects and these were recorded if and when they were observed.
The tumour size was measured twice weekly in two dimensions using calipers, and the volume was expressed in mm^3 using the formula: V=0.5 a×b^2 where a and b were the long and short diameters of the tumour, respectively.
Mice were euthanized by CO2 exposure after 4-cycle dose. The tumour volume, weight of dissected tumours, and the mouse body weight were measured and recorded. The tumour inhibitory rate (IR) was calculated by the formula IR=(WV−WT)/WV×100%.
The differences in tumour size between the groups were analyzed for significance using the unpaired two-tailed Student's t-test. P<0.05 was considered to be statistically significant.

K-562 = assay: CellTiter-Blue assay, haematological cell line; type: cell-based; conditions: Homo sapiens, K562, 96 h; K-562 (CML), four days treatment
Method: (§1) The compounds of Examples 2 and 7 were tested against a range of human haematological cell lines using the CellTiter-Blue® assay (#G8081, Promega) according to the manufacturer's instructions. Cells were harvested from exponential phase cultures, counted and plated in 96 well flat-bottom microtiter plates at a cell density of 20,000-90,000 cells/well. After a 24 h recovery period to allow the cells to resume exponential growth, 10 μl of culture medium (four control wells/plate) or of culture medium with test compound were added. The compounds were applied in duplicates at ten concentrations and treatment continued for four days. After treatment of cells, 10 μl/well CellTiter-Blue® reagent was added. Following an incubation period of up to four hours, fluorescence (FU) was measured by using the EnVision Xcite multilabel reader (excitation λ=531 nm, emission λ=615 nm). The compounds were tested in two to four independent experiments for each cell line.

L-363 = assay: CellTiter-Blue assay, haematological cell line; type: cell-based; conditions: Homo sapiens, 96 h; L-363 (MM), four days treatment
Method: as §1

OCI-AML2 = assay: CellTiter-Blue assay, haematological cell line; type: cell-based; conditions: Homo sapiens, 96 h; OCI-AML2 (AML), four days treatment
Method: as §1

JURL-MK1 = assay: CellTiter-Blue assay, haematological cell line; type: cell-based; conditions: Homo sapiens, 96 h; JURL-MK1 (CML), four days treatment
Method: as §1

LP-1 = assay: CellTiter-Blue assay, haematological cell line; type: cell-based; conditions: Homo sapiens, 96 h; LP-1 (MM), four days treatment
Method: as §1

KG-1 = assay: CellTiter-Blue assay, haematological cell line; type: cell-based; conditions: Homo sapiens, 96 h; KG-1 (AML), four days treatment
Method: as §1

JURKAT = assay: CellTiter-Blue assay, haematological cell line; type: cell-based; conditions: Homo sapiens, 96 h; JURKAT (ALL), four days treatment
Method: as §1

CCRF-CEM/VCR = assay: CellTiter-Blue assay, haematological cell line; type: cell-based; conditions: Homo sapiens, 96 h; CCRF-CEM/VCR (ALL), four days treatment
Method: as §1

KCL-22 = assay: CellTiter-Blue assay, haematological cell line; type: cell-based; conditions: Homo sapiens, 96 h; KCL-22 (CML), four days treatment
Method: as §1

IM-9 = assay: CellTiter-Blue assay, haematological cell line; type: cell-based; conditions: Homo sapiens, 96 h; IM-9 (MM), four days treatment
Method: as §1

CCRF-CEM = assay: CellTiter-Blue assay, haematological cell line; type: cell-based; conditions: Homo sapiens, 96 h; CCRF-CEM (ALL), four days treatment
Method: as §1

KM-H2 = assay: CellTiter-Blue assay, haematological cell line; type: cell-based; conditions: Homo sapiens, 96 h; KM-H2 (HL), four days treatment
Method: as §1

U-937 = assay: CellTiter-Blue assay, haematological cell line; type: cell-based; conditions: Homo sapiens, 96 h; U-937 (NHL), four days treatment
Method: as §1

NCI-H929 = assay: CellTiter-Blue assay, haematological cell line; type: cell-based; conditions: Homo sapiens, 96 h; NCI-H929 (MM), four days treatment
Method: as §1

RPMI8226 = assay: CellTiter-Blue assay, haematological cell line; type: cell-based; conditions: Homo sapiens, RPMI-8226, 96 h; RPMI8226 (MM), four days treatment

Structure (SMILES) | IC50 (HCT-116) | effect on tumour growth (tumour volume) (MV4-11 xenograft tumors; 20 mg/kg IV BID) | tumour inhibitory rate (IR) (MV4-11 xenograft tumors; 20 mg/kg IV BID) | IC50 (K-562) | IC50 (L-363) | IC50 (OCI-AML2) | IC50 (JURL-MK1) | IC50 (LP-1) | IC50 (KG-1) | IC50 (JURKAT) | IC50 (CCRF-CEM/VCR) | IC50 (KCL-22) | IC50 (IM-9) | IC50 (CCRF-CEM) | IC50 (KM-H2) | IC50 (U-937) | IC50 (NCI-H929) | IC50 (RPMI8226) | effect on tumour growth (tumour volume) (MV4-11 xenograft tumors; 30 mg/kg IV BID) | tumour inhibitory rate (IR) (MV4-11 xenograft tumors; 30 mg/kg IV BID)
Cc1ccc2[nH]ccc2c1-c1nc(C(N)=O)c(-c2ccc(N3CCNC(C)(C)C3)cc2)o1 [Example 2, 2-(5-Methyl-1H-Indol-4-yl)-5-[4-(3,3-dimethyl-piperazin-1-yl)-phenyl]-oxazole-4-carboxylic acid amide] | 0.074 µM | completely inhibited the tumor growth | 98.13% | 0.326 µM | 0.121 µM | 0.103 µM | 0.141 µM | 1.07 µM | 0.076 µM | 0.091 µM | 0.458 µM | 0.417 µM | 0.07 µM | 0.05 µM | 0.189 µM | 0.094 µM | 0.852 µM | 2.14 µM |  | 
Cc1cc(F)c2[nH]ccc2c1-c1nc(C(N)=O)c(-c2ccc(N3CCNC(C)(C)C3)cc2)o1 [Example 7, 2-(5-Methyl-7-Fluoro-1H-Indol-4-yl)-5-[4-(3,3-dimethyl-piperazin-1-yl)-phenyl]-oxazole-4-carboxylic acid amide] | 0.12 µM |  |  | 0.219 µM | 0.104 µM | 0.091 µM | 0.098 µM | 1.01 µM | 0.137 µM | 0.093 µM | 0.239 µM | 0.366 µM | 0.07 µM | 0.046 µM | 0.137 µM | 0.155 µM | 1.4 µM |  | completely inhibited the tumor growth | 98.24%
